Data as given in US20230192700A1, “PYRAZOLOPYRAZINES ACTING ON CANCERS VIA INHIBITION OF CDK12” (Bayer Aktiengesellschaft, priority 2020, published 2023).
Read-outs that look alike come from different tables or passages of the source.

Assays:
CDK9/CyclinT1 = target: T1, CDK9/CyclinT1 (Homo sapiens, UniProt P50750); test: CDK9/CycT1 high ATP kinase assay (TR-FRET); assay type: biochemical; conditions: 2 mM ATP (high ATP); median; read-out: CDK9/CyclinT1, 2 mM ATP (high ATP) IC50 - [mol/l] (median)
T1 construct: Recombinant full-length His-tagged human CDK9 and CycT1; His-tag; purchased Life Technologies PV4131; host or cells: insect cells
T1 sequence (P50750 whole entry): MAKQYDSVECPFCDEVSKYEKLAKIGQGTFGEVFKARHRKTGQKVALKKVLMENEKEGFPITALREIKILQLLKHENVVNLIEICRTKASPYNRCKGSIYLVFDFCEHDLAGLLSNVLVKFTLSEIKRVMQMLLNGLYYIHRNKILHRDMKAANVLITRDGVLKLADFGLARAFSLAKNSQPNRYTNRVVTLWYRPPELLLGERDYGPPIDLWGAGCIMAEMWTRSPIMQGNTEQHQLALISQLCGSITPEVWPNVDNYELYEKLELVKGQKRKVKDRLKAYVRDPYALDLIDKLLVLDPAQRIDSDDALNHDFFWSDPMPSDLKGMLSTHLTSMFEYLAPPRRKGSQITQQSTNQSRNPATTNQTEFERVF
T1 sequence (O60563 whole entry partner): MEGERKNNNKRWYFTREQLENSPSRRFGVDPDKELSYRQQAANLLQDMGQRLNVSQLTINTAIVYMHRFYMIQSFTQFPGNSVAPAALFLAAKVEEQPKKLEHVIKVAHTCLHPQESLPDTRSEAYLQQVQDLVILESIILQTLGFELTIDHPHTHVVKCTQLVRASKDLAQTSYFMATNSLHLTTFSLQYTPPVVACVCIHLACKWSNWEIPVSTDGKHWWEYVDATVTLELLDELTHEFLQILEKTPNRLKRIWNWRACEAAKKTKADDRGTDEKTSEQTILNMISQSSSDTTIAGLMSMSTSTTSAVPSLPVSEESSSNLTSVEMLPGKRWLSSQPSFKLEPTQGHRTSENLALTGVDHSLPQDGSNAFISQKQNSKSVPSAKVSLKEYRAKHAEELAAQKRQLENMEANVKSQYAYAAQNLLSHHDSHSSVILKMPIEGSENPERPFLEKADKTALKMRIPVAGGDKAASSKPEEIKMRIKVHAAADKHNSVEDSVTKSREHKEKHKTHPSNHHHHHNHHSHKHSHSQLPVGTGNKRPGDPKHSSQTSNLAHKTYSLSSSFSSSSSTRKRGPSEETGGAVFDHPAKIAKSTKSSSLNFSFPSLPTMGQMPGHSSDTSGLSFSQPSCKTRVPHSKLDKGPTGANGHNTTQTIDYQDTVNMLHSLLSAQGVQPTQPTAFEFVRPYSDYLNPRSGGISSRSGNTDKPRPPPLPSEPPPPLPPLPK
Method in brief: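 Full-length His-tagged human CDK9/CycT1 (insect cell) at ~0.5 µg/mL, preincubated with compound 15 min at 22 °C in Tris pH 8.0 buffer, then reacted 25 min with 2 mM ATP and 0.75 µM biotinylated peptide (final). Phospho-substrate detected by TR-FRET (anti-RB pSer807/811, Eu/XL665), 665/620 nm ratio normalised to no-inhibitor and no-enzyme controls.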

[1] = system: CAL-120 human breast adenocarcinoma cells; test: Proliferation assay CAL-120 (crystal violet); assay type: cell-based; conditions: CAL-120 cells, 4 days, median, read-out: Prolif-CAL-120— IC50 - [mol/l] (median)
Method in brief: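 Cells seeded at 4,000/well in medium with 10% fetal calf serum, dosed after 24 h (0.01-10 micromol/L, 0.1% DMSO) and grown 4 days. Crystal violet staining read at 595 nm, normalised to zero-point plate (0%) and untreated cells (100%); IC50 by 4-parameter fit.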

SMILES | IC50 (CDK9/CyclinT1) | IC50 ([1]; Homo sapiens, CAL-120, 96 h) | IC50 [1]
CN1CCC(n2nc(NCc3nc4c(F)cccc4[nH]3)c3ncc(C4CC4)nc32)CC1 [Example 3, 6-cyclopropyl-N-[(4-fluoro-1H-benzimidazol-2-yl)methyl]-1-(1-methylpiperidin-4-yl)-1H-pyrazolo[3,4-b]pyrazin-3-amine] | > 20000 nM | 3.3 nM | –
COc1cccc2[nH]c(CNc3nn(C4CCOCC4)c4nc(C5CC5)cnc34)nc12 [Example 24, 6-cyclopropyl-N-[(4-methoxy-1H-benzimidazol-2-yl)methyl]-1-(oxan-4-yl)-1H-pyrazolo[3,4-b]pyrazin-3-amine] | > 20000 nM | 10 nM | –
c1ccc2[nH]c(CNc3nn(C4C[C@H]5CC[C@@H](C4)O5)c4nc(C5CC5)cnc34)nc2c1 (stereo partly drawn) [Example 45, exo/endo-N-[(1H-benzimidazol-2-yl)methyl]-6-cyclopropyl-1-(8-oxabicyclo[3.2.1]octan-3-yl)-1H-pyrazolo[3,4-b]pyrazin-3-amine] | > 20000 nM | 9.86 nM | –
Fc1ccc2[nH]c(CNc3nn(C4CCOCC4)c4nc(C5CC5)cnc34)nc2c1 [Example 53, 6-cyclopropyl-N-[(5-fluoro-1H-benzimidazol-2-yl)methyl]-1-(oxan-4-yl)-1H-pyrazolo[3,4-b]pyrazin-3-amine] | > 20000 nM | 19.7 nM | –
Cc1c(F)ccc2[nH]c(CNc3nn(C4CCN(C)CC4)c4nc(C5CC5)cnc34)nc12 [Example 26, 6-cyclopropyl-N-[(5-fluoro-4-methyl-1H-benzimidazol-2-yl)methyl]-1-(1-methylpiperidin-4-yl)-1H-pyrazolo[3,4-b]pyrazin-3-amine] | > 20000 nM | 10.1 nM | –
Cc1cccc2[nH]c(CNc3nn(C4CCN(C)CC4)c4nc(C5CC5)cnc34)nc12 [Example 8, 6-cyclopropyl-N-[(4-methyl-1H-benzimidazol-2-yl)methyl]-1-(1-methylpiperidin-4-yl)-1H-pyrazolo[3,4-b]pyrazin-3-amine] | > 20000 nM | 14.2 nM | –
Cc1c(Cl)ccc2[nH]c(CNc3nn(C4CCN(C)CC4)c4nc(C5CC5)cnc34)nc12 [Example 21, N-[(5-chloro-4-methyl-1H-benzimidazol-2-yl)methyl]-6-cyclopropyl-1-(1-methylpiperidin-4-yl)-1H-pyrazolo[3,4-b]pyrazin-3-amine] | > 20000 nM | 7.93 nM | –
Fc1ccc2[nH]c(CNc3nn(C4CCOCC4)c4nc(C5CC5)cnc34)nc2c1F [Example 32, 6-cyclopropyl-N-[(4,5-difluoro-1H-benzimidazol-2-yl)methyl]-1-(oxan-4-yl)-1H-pyrazolo[3,4-b]pyrazin-3-amine] | > 20000 nM | 2.12 nM | –
c1ccc2[nH]c(CNc3nn(C4CCNCC4)c4nc(C5CC5)cnc34)nc2c1 [Example 12, N-[(1H-benzimidazol-2-yl)methyl]-6-cyclopropyl-1-(piperidin-4-yl)-1H-pyrazolo[3,4-b]pyrazin-3-amine] | > 20000 nM | 6.49 nM | –
Cc1cnc2c(NCc3nc4ccccc4[nH]3)nn(C3CCN(C)CC3)c2n1 [Example 77, N-[(1H-benzimidazol-2-yl)methyl]-6-methyl-1-(1-methylpiperidin-4-yl)-1H-pyrazolo[3,4-b]pyrazin-3-amine] | > 20000 nM | 1040 nM | –
CC1CC(n2nc(NCc3nc4ccccc4[nH]3)c3ncc(C4CC4)nc32)CCN1C (racemic) [Example 41, (±)-cis/trans-N-[(1H-benzimidazol-2-yl)methyl]-6-cyclopropyl-1-(1,2-dimethylpiperidin-4-yl)-1H-pyrazolo[3,4-b]pyrazin-3-amine] | > 20000 nM | 20.4 nM | –
CN1CCC(n2nc(NCc3nc4cc(C(F)(F)F)ccc4[nH]3)c3ncc(C4CC4)nc32)CC1 [Example 25, 6-cyclopropyl-1-(1-methylpiperidin-4-yl)-N-{[5-(trifluoromethyl)-1H-benzimidazol-2-yl]methyl}-1H-pyrazolo[3,4-b]pyrazin-3-amine] | > 20000 nM | 3.14 nM | –
COCCC(C)n1nc(NCc2nc3ccccc3[nH]2)c2ncc(C3CC3)nc21 (single isomer, unassigned; (+)) [Example 59, (+)-N-[(1H-benzimidazol-2-yl)methyl]-6-cyclopropyl-1-[4-methoxybutan-2-yl]-1H-pyrazolo[3,4-b]pyrazin-3-amine] | > 20000 nM | – | 440 nM

Second part, the molecule after the results:

IC50 (CDK9/CyclinT1) | IC50 ([1]; Homo sapiens, CAL-120, 96 h) | IC50 [1] | SMILES
> 20000 nM | 55.7 nM | – | CC(C)(O)CCn1nc(NCc2nc3ccccc3[nH]2)c2ncc(C3CC3)nc21 [Example 76, 4-(3-{[(1H-benzimidazol-2-yl)methyl]amino}-6-cyclopropyl-1H-pyrazolo[3,4-b]pyrazin-1-yl)-2-methylbutan-2-ol]
> 20000 nM | 71.8 nM | – | O[C@H]1C[C@H](Cn2nc(NCc3nc4ccccc4[nH]3)c3ncc(C4CC4)nc32)C1 [Example 70, trans-3-[(3-{[(1H-benzimidazol-2-yl)methyl]amino}-6-cyclopropyl-1H-pyrazolo[3,4-b]pyrazin-1-yl)methyl]cyclobutan-1-ol]
> 20000 nM | 88.8 nM | – | c1ccc2[nH]c(CNc3nn(C4CCCC4)c4nc(C5CC5)cnc34)nc2c1 [Example 39, N-[(1H-benzimidazol-2-yl)methyl]-1-cyclopentyl-6-cyclopropyl-1H-pyrazolo[3,4-b]pyrazin-3-amine]
> 20000 nM | 268 nM | – | c1ccc2[nH]c(CNc3nn(CC4CCC4)c4nc(C5CC5)cnc34)nc2c1 [Example 75, N-[(1H-benzimidazol-2-yl)methyl]-1-(cyclobutylmethyl)-6-cyclopropyl-1H-pyrazolo[3,4-b]pyrazin-3-amine]
> 20000 nM | 23.5 nM | – | CC1CC(n2nc(NCc3nc4ccccc4[nH]3)c3ncc(C4CC4)nc32)CCO1 (racemic) [Example 44, (±)-cis/trans-N-[(1H-benzimidazol-2-yl)methyl]-6-cyclopropyl-1-(2-methyloxan-4-yl)-1H-pyrazolo[3,4-b]pyrazin-3-amine]
> 20000 nM | 199 nM | – | CC(C)(O)Cn1nc(NCc2nc3ccccc3[nH]2)c2ncc(C3CC3)nc21 [Example 69, 1-(3-{[(1H-benzimidazol-2-yl)methyl]amino}-6-cyclopropyl-1H-pyrazolo[3,4-b]pyrazin-1-yl)-2-methylpropan-2-ol]
> 20000 nM | 41.9 nM | – | O[C@H]1C[C@H](n2nc(NCc3nc4ccccc4[nH]3)c3ncc(C4CC4)nc32)C1 [Example 43, trans-3-(3-{[(1H-benzimidazol-2-yl)methyl]amino}-6-cyclopropyl-1H-pyrazolo[3,4-b]pyrazin-1-yl)cyclobutan-1-ol]
